Paper PMC5391474, “Investigation of the Role of Protein Kinase D in Human Rhinovirus Replication” (Journal of Virology, 2017)

How the values were obtained:
Assay in all cases: biochemical
Design in all cases: in vitro kinase selectivity panel, protein and lipid kinases, single concentration, ATP at Km
Conditions in all cases: ATP at Km
[1] = molecular target: T1, ARK5(h) (Homo sapiens, UniProt O60285)
T1 construct: gene NUAK1
Protocol: (§1) CRT0066101 was described previously ([48]) and was purchased for this study from Tocris, with a purity of 99.9%. CRT0066101 (XX-209) and compound XX-050 were synthesized as previously described ([68]). CRT0066051 (Y-095) was also synthesized as previously described ([69]). […] CRT0066101 can also be obtained in larger quantities from Ximbio. Inhibitors were tested in in vitro PKD kinase assays and cellular assays on PANC1 cells as previously described ([48]). The selectivity of the three PKD inhibitors was determined against a panel of protein and lipid kinases by Eurofins and the MRC PPU International Centre for Kinase Profiling (http://www.kinase-screen.mrc.ac.uk), respectively. Each inhibitor was tested at a single concentration of 1 μM and at an ATP concentration equivalent to the Km for each kinase. Having shown that HRV infection appears to activate PKD, we went on to explore the influence of chemical inhibitors of PKD on HRV replication. The compound CRT0066101 is a specific and potent PKD inhibitor that has been used in studies exploring its potential as an anticancer target ([48], [51]). This inhibitor has a 50% inhibitory concentration (IC50) of 1 nM against purified PKD in biochemical assays and a 50% effective concentration (EC50) of 1 μM in a cell-based assay (Table 1). We pretreated HeLa cells with increasing concentrations of the drug for 1 h followed by infection with HRV16. Viral replication was subsequently measured at 6 hpi by quantitative real-time PCR (qRT-PCR) (Fig. 2A) and by Western blotting using an antibody against the viral nonstructural protein 2C (Fig. 2B). […] Furthermore, we tested two novel and structurally different PKD inhibitors (CRT0066051 and XX-050) (Table 1) and confirmed that they too inhibited HRV 2C expression although with different potencies (Fig. 2D). Kinase selectivity profiling of all three PKD inhibitors was performed against a panel of protein and lipid kinases at a drug concentration of 1 μM and at an ATP concentration equivalent to the Km of each kinase (see Table S1 in the supplemental material). […] Since PKD is known to be involved in regulating the architecture of the Golgi apparatus, we confirmed the pharmacodynamic effect of these inhibitors by demon

[2] = molecular target: T2, PKCθ(h) (Homo sapiens, UniProt Q04759)
T2 construct: gene PRKCQ
Protocol: as §1

[3] = molecular target: Blk(m) (Mus musculus, UniProt P16277)
Protocol: as §1

[4] = molecular target: T3, CK1γ1(h) (Homo sapiens, UniProt Q9HCP0)
T3 construct: gene CSNK1G1
Protocol: as §1

[5] = molecular target: T4, PKCβII(h) (Homo sapiens, UniProt P05771)
T4 construct: gene PRKCB; isoform beta II
Protocol: as §1

[6] = molecular target: T5, p70S6K(h) (Homo sapiens, UniProt P23443)
T5 construct: gene RPS6KB1
Protocol: as §1

[7] = molecular target: CDK2/cyclinA(h) (Homo sapiens, UniProt P24941)
Protocol: as §1

[8] = molecular target: CHKA (Homo sapiens, UniProt P35790)
Protocol: as §1

[9] = molecular target: DAPK1(h) (Homo sapiens, UniProt P53355)
Protocol: as §1

[10] = molecular target: T6, Aurora-A(h) (Homo sapiens, UniProt O14965)
T6 construct: gene AURKA
Protocol: as §1

[11] = molecular target: T7, TrkA(h) (Homo sapiens, UniProt P04629)
T7 construct: gene NTRK1
Protocol: as §1

[12] = molecular target: HIPK1(h) (Homo sapiens, UniProt Q86Z02)
Protocol: as §1

[13] = molecular target: T8, Abl(T315I)(h) (Homo sapiens, UniProt P00519, T315I)
T8 construct: gene ABL1
Protocol: as §1

[14] = molecular target: T9, MST2(h) (Homo sapiens, UniProt Q13188)
T9 construct: gene STK3
Protocol: as §1

[15] = molecular target: T10, Ros(h) (Homo sapiens, UniProt P08922)
T10 construct: gene ROS1
Protocol: as §1

[16] = molecular target: T11, PKCι(h) (Homo sapiens, UniProt P41743)
T11 construct: gene PRKCI
Protocol: as §1

[17] = molecular target: Axl(h) (Homo sapiens, UniProt P30530)
Protocol: as §1

T6 sequence (O14965 whole entry): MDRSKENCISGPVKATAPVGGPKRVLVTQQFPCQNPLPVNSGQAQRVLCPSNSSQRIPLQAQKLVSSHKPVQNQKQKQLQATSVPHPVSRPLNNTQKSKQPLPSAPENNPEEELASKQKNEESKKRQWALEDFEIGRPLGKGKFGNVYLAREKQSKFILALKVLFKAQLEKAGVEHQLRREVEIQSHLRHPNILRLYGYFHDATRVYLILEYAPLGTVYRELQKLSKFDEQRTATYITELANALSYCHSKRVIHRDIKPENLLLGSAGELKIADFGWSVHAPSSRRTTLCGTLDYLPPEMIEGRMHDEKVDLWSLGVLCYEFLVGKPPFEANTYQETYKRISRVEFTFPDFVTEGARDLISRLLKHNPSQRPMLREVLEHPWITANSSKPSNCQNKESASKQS
Sequence of Axl(h) (P30530 whole entry): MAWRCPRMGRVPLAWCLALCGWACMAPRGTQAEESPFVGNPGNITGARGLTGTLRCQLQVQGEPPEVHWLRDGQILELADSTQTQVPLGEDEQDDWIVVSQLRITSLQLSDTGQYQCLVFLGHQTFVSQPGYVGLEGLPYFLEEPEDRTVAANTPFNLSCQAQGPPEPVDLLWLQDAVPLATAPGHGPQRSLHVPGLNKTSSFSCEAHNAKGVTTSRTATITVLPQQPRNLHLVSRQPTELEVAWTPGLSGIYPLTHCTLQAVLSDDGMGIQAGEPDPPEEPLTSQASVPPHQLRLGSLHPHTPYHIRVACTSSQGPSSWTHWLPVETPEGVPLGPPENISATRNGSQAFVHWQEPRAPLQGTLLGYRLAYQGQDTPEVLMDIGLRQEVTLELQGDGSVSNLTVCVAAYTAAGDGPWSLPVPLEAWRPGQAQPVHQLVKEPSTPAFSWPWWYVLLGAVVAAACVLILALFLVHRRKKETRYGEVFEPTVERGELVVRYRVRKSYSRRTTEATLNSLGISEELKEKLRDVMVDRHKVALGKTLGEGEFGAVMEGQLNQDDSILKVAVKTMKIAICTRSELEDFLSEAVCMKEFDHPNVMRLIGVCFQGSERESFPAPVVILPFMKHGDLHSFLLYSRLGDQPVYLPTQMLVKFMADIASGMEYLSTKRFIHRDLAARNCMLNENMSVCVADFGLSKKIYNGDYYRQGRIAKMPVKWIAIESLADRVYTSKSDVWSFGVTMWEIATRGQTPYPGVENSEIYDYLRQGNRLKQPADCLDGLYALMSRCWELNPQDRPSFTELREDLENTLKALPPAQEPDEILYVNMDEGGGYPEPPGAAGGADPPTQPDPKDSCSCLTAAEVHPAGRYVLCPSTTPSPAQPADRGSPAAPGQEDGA
T11 sequence (P41743 whole entry): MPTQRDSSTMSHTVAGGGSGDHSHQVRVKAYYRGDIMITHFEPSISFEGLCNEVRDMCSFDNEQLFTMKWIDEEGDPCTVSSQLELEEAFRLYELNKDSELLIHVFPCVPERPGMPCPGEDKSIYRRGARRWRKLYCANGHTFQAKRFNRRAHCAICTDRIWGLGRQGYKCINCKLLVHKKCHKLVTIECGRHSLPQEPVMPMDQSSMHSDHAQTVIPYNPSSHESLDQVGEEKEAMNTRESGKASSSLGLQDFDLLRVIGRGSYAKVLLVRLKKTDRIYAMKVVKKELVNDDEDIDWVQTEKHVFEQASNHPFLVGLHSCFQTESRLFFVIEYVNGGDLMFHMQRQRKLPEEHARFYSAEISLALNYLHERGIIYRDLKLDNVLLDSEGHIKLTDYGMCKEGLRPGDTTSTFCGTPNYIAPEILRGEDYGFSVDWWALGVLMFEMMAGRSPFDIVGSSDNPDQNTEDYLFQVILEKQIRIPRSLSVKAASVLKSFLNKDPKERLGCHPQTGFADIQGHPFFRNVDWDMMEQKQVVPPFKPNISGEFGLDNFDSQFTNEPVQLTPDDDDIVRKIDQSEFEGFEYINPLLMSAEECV
T9 sequence (Q13188 whole entry): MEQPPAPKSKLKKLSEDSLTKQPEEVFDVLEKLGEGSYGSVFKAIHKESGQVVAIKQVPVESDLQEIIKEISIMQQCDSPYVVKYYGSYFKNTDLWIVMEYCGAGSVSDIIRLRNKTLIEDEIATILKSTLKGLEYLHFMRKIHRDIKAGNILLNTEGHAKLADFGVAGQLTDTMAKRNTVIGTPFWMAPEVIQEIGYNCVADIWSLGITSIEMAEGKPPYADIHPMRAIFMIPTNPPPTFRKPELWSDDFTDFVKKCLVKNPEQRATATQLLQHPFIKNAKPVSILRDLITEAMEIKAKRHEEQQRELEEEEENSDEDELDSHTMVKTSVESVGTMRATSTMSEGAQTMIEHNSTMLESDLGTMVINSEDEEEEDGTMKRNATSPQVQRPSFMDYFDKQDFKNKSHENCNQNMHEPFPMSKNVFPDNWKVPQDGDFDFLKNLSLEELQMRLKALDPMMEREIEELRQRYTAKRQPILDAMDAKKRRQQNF
T7 sequence (P04629 whole entry): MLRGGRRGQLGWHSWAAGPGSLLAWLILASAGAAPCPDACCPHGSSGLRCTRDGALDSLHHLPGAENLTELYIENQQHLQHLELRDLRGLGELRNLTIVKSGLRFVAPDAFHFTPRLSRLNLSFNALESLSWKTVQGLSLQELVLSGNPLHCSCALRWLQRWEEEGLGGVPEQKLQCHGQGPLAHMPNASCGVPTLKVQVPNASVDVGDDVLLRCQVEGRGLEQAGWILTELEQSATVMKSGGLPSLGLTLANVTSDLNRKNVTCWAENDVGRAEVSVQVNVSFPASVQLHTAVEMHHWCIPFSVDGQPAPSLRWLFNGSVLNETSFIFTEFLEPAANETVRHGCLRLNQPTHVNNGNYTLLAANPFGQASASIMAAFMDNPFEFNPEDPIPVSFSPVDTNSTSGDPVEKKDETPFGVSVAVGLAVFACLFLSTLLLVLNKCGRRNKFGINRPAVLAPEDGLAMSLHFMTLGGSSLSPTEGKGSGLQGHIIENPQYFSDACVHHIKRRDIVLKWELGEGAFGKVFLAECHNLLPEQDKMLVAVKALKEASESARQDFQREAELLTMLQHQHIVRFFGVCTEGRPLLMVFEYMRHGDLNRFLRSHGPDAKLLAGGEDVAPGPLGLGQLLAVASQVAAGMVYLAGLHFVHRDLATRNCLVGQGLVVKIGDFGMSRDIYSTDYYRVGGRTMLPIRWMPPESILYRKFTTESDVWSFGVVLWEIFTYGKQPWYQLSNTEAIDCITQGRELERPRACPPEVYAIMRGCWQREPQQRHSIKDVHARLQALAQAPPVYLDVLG
Sequence of Blk(m) (P16277 whole entry): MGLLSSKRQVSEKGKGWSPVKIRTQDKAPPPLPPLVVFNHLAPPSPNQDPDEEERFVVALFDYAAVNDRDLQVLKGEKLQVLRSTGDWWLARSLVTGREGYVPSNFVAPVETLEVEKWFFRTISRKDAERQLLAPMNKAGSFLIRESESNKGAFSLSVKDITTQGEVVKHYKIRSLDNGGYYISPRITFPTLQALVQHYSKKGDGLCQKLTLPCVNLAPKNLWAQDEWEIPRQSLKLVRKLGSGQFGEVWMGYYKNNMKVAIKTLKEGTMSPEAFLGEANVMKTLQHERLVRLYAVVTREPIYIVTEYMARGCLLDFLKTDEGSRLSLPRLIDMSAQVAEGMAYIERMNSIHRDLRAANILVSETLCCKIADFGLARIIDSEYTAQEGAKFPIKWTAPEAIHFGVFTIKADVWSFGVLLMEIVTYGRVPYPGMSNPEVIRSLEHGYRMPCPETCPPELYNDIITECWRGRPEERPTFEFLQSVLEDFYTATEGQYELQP
T5 sequence (P23443 whole entry): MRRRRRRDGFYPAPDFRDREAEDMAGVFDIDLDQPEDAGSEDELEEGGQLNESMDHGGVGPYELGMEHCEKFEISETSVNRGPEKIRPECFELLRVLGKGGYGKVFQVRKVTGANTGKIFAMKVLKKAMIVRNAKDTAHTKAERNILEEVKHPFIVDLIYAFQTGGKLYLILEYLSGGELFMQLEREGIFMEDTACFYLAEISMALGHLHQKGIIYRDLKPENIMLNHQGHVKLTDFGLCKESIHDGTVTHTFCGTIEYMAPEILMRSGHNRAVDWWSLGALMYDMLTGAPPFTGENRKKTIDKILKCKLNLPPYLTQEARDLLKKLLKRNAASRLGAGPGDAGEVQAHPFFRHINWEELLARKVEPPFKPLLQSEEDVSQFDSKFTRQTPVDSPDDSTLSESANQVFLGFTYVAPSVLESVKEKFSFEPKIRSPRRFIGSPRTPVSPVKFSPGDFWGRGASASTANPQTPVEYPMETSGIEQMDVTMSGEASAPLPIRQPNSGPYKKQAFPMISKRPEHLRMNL
T1 sequence (O60285 whole entry): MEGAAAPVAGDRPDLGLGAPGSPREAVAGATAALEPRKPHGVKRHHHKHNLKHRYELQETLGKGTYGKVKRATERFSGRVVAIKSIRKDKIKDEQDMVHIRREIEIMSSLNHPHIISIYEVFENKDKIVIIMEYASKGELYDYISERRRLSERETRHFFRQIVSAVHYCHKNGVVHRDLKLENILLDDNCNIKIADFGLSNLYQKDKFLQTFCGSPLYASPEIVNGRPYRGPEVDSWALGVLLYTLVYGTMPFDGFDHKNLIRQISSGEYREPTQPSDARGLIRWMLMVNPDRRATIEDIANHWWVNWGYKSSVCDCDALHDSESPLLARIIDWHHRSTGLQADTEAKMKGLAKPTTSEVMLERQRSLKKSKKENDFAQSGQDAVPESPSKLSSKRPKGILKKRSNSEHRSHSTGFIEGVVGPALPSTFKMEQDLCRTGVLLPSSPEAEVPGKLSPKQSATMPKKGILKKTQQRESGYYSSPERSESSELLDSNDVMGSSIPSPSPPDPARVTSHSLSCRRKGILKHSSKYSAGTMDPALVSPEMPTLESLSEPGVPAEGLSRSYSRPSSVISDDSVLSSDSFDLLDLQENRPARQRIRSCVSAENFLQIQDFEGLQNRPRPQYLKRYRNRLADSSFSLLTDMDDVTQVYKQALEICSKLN

Compound CC[C@@H](N)CNc1ccnc(-c2cc(-c3cnn(C)c3)ccc2O)n1 [CRT0066101] has an inhibition at 1 µM [1] of 49%, an inhibition at 1 µM [2] of 6% and an inhibition at 1 µM [3] of 12%. For the same compound, the inhibition at 1 µM [4] was -5%, the inhibition at 1 µM [5] was -1% and the inhibition at 1 µM [6] was 31%. For the same compound, the inhibition at 1 µM [7] was 53%, the inhibition at 1 µM [8] was 1% and the inhibition at 1 µM [9] was -8%. It also gave an inhibition at 1 µM [10] of -1%, an inhibition at 1 µM [11] of 23% and an inhibition at 1 µM [12] of 23%. For the same compound, the inhibition at 1 µM [13] was 5%, the inhibition at 1 µM [14] was 20% and the inhibition at 1 µM [15] was -13%. The inhibition at 1 µM [16] was 10% and the inhibition at 1 µM [17] was 39%.
